Assay results: the supplement of paper PMC10307832

Key:
Test in all cases: relative viability (nuclei count vs DMSO), 5 days (fraction); higher = more cells survive
[1] = compound: CC(C)N(CCCNC(=O)Nc1ccc(C(C)(C)C)cc1)C[C@H]1O[C@@H](n2ccc3c(N)ncnc32)[C@H](O)[C@@H]1O + N=C(N)NC(=N)NCCc1ccccc1 [Phenformin] (partner 250 µM)
Method in brief: (§1)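 Lung cancer cell lines were seeded in 1536-well plates and dosed by pin tool the next day, with either a single drug or a fixed anchor-drug dose combined with five library-drug doses (not always all listed) spaced in √10 steps. Five days later, one step fixed the cells and stained their nuclei (final 0.05% Triton X-100, 1% formaldehyde, 1 ug/ml Hoechst), and nuclei were counted on 4× images. Relative viability is the nuclei count in treated wells divided by the count in vehicle wells, and each value is the median of duplicate plates.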

Shikonin + Dasatinib = compound: CC(C)=CC[C@@H](O)C1=CC(=O)c2c(O)ccc(O)c2C1=O [Shikonin] + Cc1nc(Nc2ncc(C(=O)Nc3c(C)cccc3Cl)s2)cc(N2CCN(CCO)CC2)n1 [Dasatinib] (partner 0.075 µM)
Method in brief: as §1

[2] = compound: CC(C)N(CCCNC(=O)Nc1ccc(C(C)(C)C)cc1)C[C@H]1O[C@@H](n2ccc3c(N)ncnc32)[C@H](O)[C@@H]1O + COc1cc2c(Oc3ccc(NC(=O)C4(C(=O)Nc5ccc(F)cc5)CC4)cc3F)ccnc2cc1OCCCN1CCOCC1 [Foretinib] (partner 0.25 µM)
Method in brief: as §1

Shikonin + Alpelisib = compound: CC(C)=CC[C@@H](O)C1=CC(=O)c2c(O)ccc(O)c2C1=O [Shikonin] + Cc1nc(NC(=O)N2CCC[C@H]2C(N)=O)sc1-c1ccnc(C(C)(C)C(F)(F)F)c1 [Alpelisib] (partner 2 µM)
Method in brief: as §1

Cell Line	relative viability ([1]; first compound 0.08 µM)	relative viability ([1]; first compound 0.253 µM)	relative viability ([1]; first compound 0.8 µM)	relative viability ([1]; first compound 2.53 µM)	relative viability ([1]; first compound 8 µM)	relative viability (Shikonin + Dasatinib; first compound 0.01 µM)	relative viability (Shikonin + Dasatinib; first compound 0.1 µM)	relative viability (Shikonin + Dasatinib; first compound 0.3162 µM)	relative viability (Shikonin + Dasatinib; first compound 1 µM)	relative viability ([2]; first compound 0.08 µM)	relative viability ([2]; first compound 0.253 µM)	relative viability ([2]; first compound 2.53 µM)	relative viability ([2]; first compound 8 µM)	relative viability (Shikonin + Alpelisib; first compound 0.01 µM)	relative viability (Shikonin + Alpelisib; first compound 0.1 µM)	relative viability (Shikonin + Alpelisib; first compound 0.3162 µM)	relative viability (Shikonin + Alpelisib; first compound 1 µM)	relative viability ([2]; first compound 0.8 µM)
201T	0.474	0.421	0.43	0.421	0.401	0.561	0.661	0.579	0.615	1.05	1.04	1.13	1.13	0.941	1.11	0.997	1.02	
A549	0.183	0.142	0.164	0.152	0.105					0.939	1.06	0.522	0.885	0.789	0.81	0.708	0.753	1.05
A-427	0.368	0.303	0.335	0.364	0.315	0.877	0.801	0.721	0.658	1.08	1.04	1.1	0.966	1.12	1.2	1.07	1.13	1.1
ABC-1	0.235	0.246		0.266	0.233	0.603	0.685	0.552	0.301	0.92	1	1.41	1.07	1.17	1.3	0.901	0.514	
BEN	0.254	0.258	0.265	0.246	0.287	0.302	0.407	0.303	0.386	0.629	0.935	0.567	0.697	1.09	1.1	1.12	1.24	0.689
